Measurements reported in patent US10231946B2, “Methods of treating ischemic organ damage and other disorders” (Zafgen, Inc., priority 2013, dated 2019).

Key:
Format in all cases: in vivo, human
sRAGE = sRAGE study in obese patients treated twice weekly for 81 days; details: 0.6, 1.2 or 2.4 mg twice weekly for 81 days, FIG. 1
Description: (§1) Obese patients were treated in three cohorts with intravenous administration of a formulation of the compound A. The compound was intravenously administered to each patient of a cohort (except for a placebo cohort) twice weekly for 81 days. Each of patients in the three non-placebo cohorts received either 0.6 mg of compound A (cohort 1); 1.2 mg (cohort 2); or 2.4 mg (cohort 3) doses of the compound at the time of administration. The trial was conducted under the appropriate government and medical supervision.

adiponectin [1] = test: Plasma adiponectin after twelve weeks (81 days) of treatment in obese patients; details: doses 0 (placebo), 0.6, 1.2 and 2.4 mg, FIG. 2
Description: as §1

adiponectin [2] = test: Plasma adiponectin (total, ALPCO ELISA; high molecular weight form) after 4 weeks of intravenous treatment in obese patients

| SMILES | levels of sRAGE in patients' serum (sRAGE) | plasma adiponectin (adiponectin [1]) | total plasma adiponectin (adiponectin [2]; after 4 weeks of intravenous treatment versus placebo, ALPCO ELISA, FIG. 3) | high molecular weight form of adiponectin (adiponectin [2]; after 4 weeks of intravenous treatment with 1.9 mg versus placebo, FIG. 4) |
| --- | --- | --- | --- | --- |
| CO[C@@H]1[C@H](OC(=O)/C=C/c2ccc(OCCN(C)C)cc2)CC[C@]2(CO2)[C@H]1[C@@]1(C)O[C@@H]1CC=C(C)C.O=C(O)C(=O)O [6-O-(4-dimethylaminoethoxy)cinnamoyl fumagillol oxalate] | increase | – | – | – |
| CO[C@@H]1[C@H](OC(=O)C=Cc2ccc(OCCN(C)C)cc2)CC[C@]2(CO2)[C@H]1[C@@]1(C)O[C@@H]1CC=C(C)C [Compound A, O-(4-dimethylaminoethoxycinnamoyl)fumagillol] | – | dose proportional increases | increases in total plasma adiponectin | increases in the high molecular weight form of adiponectin |
